Test results published in PMC5006034 (Scientific Reports, 2016).

Target: T1, hP2X2R (Homo sapiens, UniProt Q9UBL9)
T1 construct: gene P2RX2
T1 sequence (Q9UBL9 1-471): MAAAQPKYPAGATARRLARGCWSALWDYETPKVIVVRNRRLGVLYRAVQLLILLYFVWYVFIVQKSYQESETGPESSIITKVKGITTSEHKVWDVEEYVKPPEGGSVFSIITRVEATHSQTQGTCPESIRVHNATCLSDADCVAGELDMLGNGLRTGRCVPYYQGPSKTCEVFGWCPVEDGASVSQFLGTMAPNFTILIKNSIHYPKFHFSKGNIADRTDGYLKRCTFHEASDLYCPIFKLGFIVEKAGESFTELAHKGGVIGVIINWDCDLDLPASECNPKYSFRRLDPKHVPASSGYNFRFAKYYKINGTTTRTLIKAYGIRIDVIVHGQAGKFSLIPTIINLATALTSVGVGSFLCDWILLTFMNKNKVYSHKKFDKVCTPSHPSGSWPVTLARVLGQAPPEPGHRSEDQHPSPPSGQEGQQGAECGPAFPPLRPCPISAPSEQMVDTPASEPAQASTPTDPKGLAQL
Test: Ca2+ imaging in cells expressing hP2X2R (outsourced selectivity assay)
Type: cell-based

## O=C1CC(=O)N(c2cccc(-c3noc(=S)[nH]3)c2)c2ccc3ccccc3c2N1 [NP-1815-PX, 5-[3-(5-thioxo-4H-[1,2,4]oxadiazol-3-yl)phenyl]-1H-naphtho[1,2-b][1,4]diazepine-2,4(3H,5H)-dione]
  IC50: 7.3 µM
